Key:
Type in all cases: in vivo
Conditions in all cases: scale 0 to 100
[1] = test system: kochia (Kochia scoparia); test: Test D preemergence
Excerpt: (§1) Seeds of plant species selected from bluegrass (annual bluegrass, Poa annua), blackgrass (Alopecurus myosuroides), canarygrass (Phalaris minor), chickweed (common chickweed, Stellaria media), cutleaf geranium (Geranium dissectum), galium (catchweed bedstraw, Galium aparine), downy bromegrass (Bromus tectorum), field poppy (Papaver rhoeas), field violet (Viola arvensis), green foxtail (Setaria viridis), deadnettle (henbit deadnettle, Lamium amplexicaule), Italian ryegrass (Lolium multiflorum), kochia (Kochia scoparia), lambsquarters (Chenopodium album), oilseed rape (Brassica napus), pigweed (Amaranthus retroflexus), chamomile (scentless chamomile, Matricaria inodora), Russian thistle (Salsola kali), speedwell (bird's-eye speedwell, Veronica persica), spring barley (Hordeum vulgare), spring wheat (Triticum aestivum), wild buckwheat (Polygonum convolvulus), wild mustard (Sinapis arvensis), wild oat (Avenafatua), wild radish (Raphanus raphanistrum), windgrass (Apera spica-venti), winter barley (Hordeum vulgare), and winter wheat (Triticum aestivum) were planted into a silt loam soil and treated preemergence with test chemicals formulated in a non-phytotoxic solvent mixture which included a surfactant.
(§2) At the same time, these species were planted in pots containing Redi-Earth® planting medium (Scotts Company, 14111 Scottslawn Road, Marysville, Ohio 43041) comprising spaghnum peat moss, vermiculite, wetting agent and starter nutrients and treated with postemergence applications of the test chemicals formulated in the same manner. Plants ranged in height from 2 to 18 cm (1- to 4-leaf stage). Treated plants and controls were maintained in a controlled growth environment for 14 to 21 days after which time all species were compared to controls and visually evaluated. Plant response ratings, summarized in Table D, are based on a scale of 0 to 100 where 0 is no effect and 100 is complete control. A dash (-) response means no test result.

[2] = test system: spring wheat (Triticum aestivum); test: Test D preemergence
Excerpt: as §1, §2

[3] = test system: winter wheat (Triticum aestivum); test: Test D preemergence
Excerpt: as §1, §2

[4] = test system: Italian ryegrass (Lolium multiflorum); test: Test D postemergence
Method in brief: (§3)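 Greenhouse herbicide screen. Pre: silt loam, spray at planting. Post: 1–4 leaf, 2–18 cm. Readout: visual % control (0–100) at 14–21 DAT vs controls.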

[5] = test system: blackgrass (Alopecurus myosuroides); test: Test D postemergence
Method in brief: as §3

[6] = test system: bluegrass (annual bluegrass, Poa annua); test: Test D postemergence
Method in brief: as §3

[7] = test system: canarygrass (Phalaris minor); test: Test D postemergence
Method in brief: as §3

[8] = test system: chamomile (scentless chamomile, Matricaria inodora); test: Test D postemergence
Method in brief: as §3

[9] = test system: chickweed (common chickweed, Stellaria media); test: Test D postemergence
Method in brief: as §3

[10] = test system: downy bromegrass (Bromus tectorum); test: Test D postemergence
Method in brief: as §3

[11] = test system: field poppy (Papaver rhoeas); test: Test D postemergence
Method in brief: as §3

[12] = test system: field violet (Viola arvensis); test: Test D postemergence
Method in brief: as §3

[13] = test system: green foxtail (Setaria viridis); test: Test D postemergence
Method in brief: as §3

[14] = test system: kochia (Kochia scoparia); test: Test D postemergence
Method in brief: as §3

[15] = test system: oilseed rape (Brassica napus); test: Test D postemergence
Method in brief: as §3

[16] = test system: pigweed (Amaranthus retroflexus); test: Test D postemergence
Method in brief: as §3

[17] = test system: speedwell (bird's-eye speedwell, Veronica persica); test: Test D postemergence
Method in brief: as §3

[18] = test system: spring barley (Hordeum vulgare); test: Test D postemergence
Method in brief: as §3

[19] = test system: spring wheat (Triticum aestivum); test: Test D postemergence
Method in brief: as §3

N#Cc1cccc(Oc2ncc(Cl)cn2)c1Oc1ncc(Cl)cn1 [Compound 3, 2,3-bis[(5-chloro-2-pyrimidinyl)oxy]benzonitrile]
Plant response rating, Kochia ([1]; 16 g ai/ha): 100 | Plant response rating, Kochia ([1]; 31 g ai/ha): 100 | Plant response rating, Kochia ([1]; 62 g ai/ha): 100 | Plant response rating, Kochia ([1]; 125 g ai/ha): 100 | Plant response rating, Wheat, Spring ([2]; 16 g ai/ha): 0 | Plant response rating, Wheat, Spring ([2]; 31 g ai/ha): 0 | Plant response rating, Wheat, Spring ([2]; 62 g ai/ha): 10 | Plant response rating, Wheat, Spring ([2]; 125 g ai/ha): 20 | Plant response rating, Wheat, Winter ([3]; 16 g ai/ha): 0 | Plant response rating, Wheat, Winter ([3]; 31 g ai/ha): 0 | Plant response rating, Wheat, Winter ([3]; 62 g ai/ha): 5 | Plant response rating, Wheat, Winter ([3]; 125 g ai/ha): 10 | Plant response rating, Ryegrass, Italian ([4]; 16 g ai/ha): 0 | Plant response rating, Ryegrass, Italian ([4]; 31 g ai/ha): 10 | Plant response rating, Ryegrass, Italian ([4]; 62 g ai/ha): 10 | Plant response rating, Ryegrass, Italian ([4]; 125 g ai/ha): 15 | Plant response rating, Blackgrass ([5]; 16 g ai/ha): 5 | Plant response rating, Blackgrass ([5]; 31 g ai/ha): 10 | Plant response rating, Blackgrass ([5]; 62 g ai/ha): 15 | Plant response rating, Blackgrass ([5]; 125 g ai/ha): 20 | Plant response rating, Bluegrass ([6]; 16 g ai/ha): 15 | Plant response rating, Bluegrass ([6]; 31 g ai/ha): 20 | Plant response rating, Bluegrass ([6]; 62 g ai/ha): 25 | Plant response rating, Bluegrass ([6]; 125 g ai/ha): 30 | Plant response rating, Canarygrass ([7]; 16 g ai/ha): 5 | Plant response rating, Canarygrass ([7]; 31 g ai/ha): 10 | Plant response rating, Canarygrass ([7]; 62 g ai/ha): 15 | Plant response rating, Canarygrass ([7]; 125 g ai/ha): 20 | Plant response rating, Chamomile ([8]; 16 g ai/ha): 0 | Plant response rating, Chamomile ([8]; 31 g ai/ha): 0 | Plant response rating, Chamomile ([8]; 62 g ai/ha): 20 | Plant response rating, Chamomile ([8]; 125 g ai/ha): 35 | Plant response rating, Chickweed ([9]; 16 g ai/ha): 50 | Plant response rating, Chickweed ([9]; 31 g ai/ha): 70 | Plant response rating, Chickweed ([9]; 62 g ai/ha): 80 | Plant response rating, Chickweed ([9]; 125 g ai/ha): 100 | Plant response rating, Bromegrass, Downy ([10]; 16 g ai/ha): 10 | Plant response rating, Bromegrass, Downy ([10]; 31 g ai/ha): 20 | Plant response rating, Bromegrass, Downy ([10]; 62 g ai/ha): 25 | Plant response rating, Bromegrass, Downy ([10]; 125 g ai/ha): 25 | Plant response rating, Field Poppy ([11]; 16 g ai/ha): 35 | Plant response rating, Field Poppy ([11]; 31 g ai/ha): 40 | Plant response rating, Field Poppy ([11]; 62 g ai/ha): 55 | Plant response rating, Field Poppy ([11]; 125 g ai/ha): 70 | Plant response rating, Field Violet ([12]; 16 g ai/ha): 90 | Plant response rating, Field Violet ([12]; 31 g ai/ha): 100 | Plant response rating, Field Violet ([12]; 62 g ai/ha): 100 | Plant response rating, Field Violet ([12]; 125 g ai/ha): 100 | Plant response rating, Foxtail, Green ([13]; 16 g ai/ha): 10 | Plant response rating, Foxtail, Green ([13]; 31 g ai/ha): 15 | Plant response rating, Foxtail, Green ([13]; 62 g ai/ha): 20 | Plant response rating, Foxtail, Green ([13]; 125 g ai/ha): 40 | Plant response rating, Kochia ([14]; 16 g ai/ha): 85 | Plant response rating, Kochia ([14]; 31 g ai/ha): 100 | Plant response rating, Kochia ([14]; 62 g ai/ha): 100 | Plant response rating, Kochia ([14]; 125 g ai/ha): 100 | Plant response rating, Oilseed Rape ([15]; 16 g ai/ha): 40 | Plant response rating, Oilseed Rape ([15]; 31 g ai/ha): 55 | Plant response rating, Oilseed Rape ([15]; 62 g ai/ha): 60 | Plant response rating, Oilseed Rape ([15]; 125 g ai/ha): 90 | Plant response rating, Pigweed ([16]; 16 g ai/ha): 100 | Plant response rating, Pigweed ([16]; 31 g ai/ha): 100 | Plant response rating, Pigweed ([16]; 62 g ai/ha): 100 | Plant response rating, Pigweed ([16]; 125 g ai/ha): 100 | Plant response rating, Speedwell ([17]; 16 g ai/ha): 85 | Plant response rating, Speedwell ([17]; 31 g ai/ha): 85 | Plant response rating, Speedwell ([17]; 62 g ai/ha): 100 | Plant response rating, Speedwell ([17]; 125 g ai/ha): 100 | Plant response rating, Barley, Spring ([18]; 16 g ai/ha): 5 | Plant response rating, Barley, Spring ([18]; 31 g ai/ha): 10 | Plant response rating, Barley, Spring ([18]; 62 g ai/ha): 15 | Plant response rating, Barley, Spring ([18]; 125 g ai/ha): 20 | Plant response rating, Wheat, Spring ([19]; 16 g ai/ha): 0 | Plant response rating, Wheat, Spring ([19]; 31 g ai/ha): 0 | Plant response rating, Wheat, Spring ([19]; 62 g ai/ha): 5 | Plant response rating, Wheat, Spring ([19]; 125 g ai/ha): 15
